{"source": "ChEMBL document CHEMBL1143411", "about": "“Concentration-effect relationship of ceftazidime explains why the time above the MIC is 40 percent for a static effect in vivo” (Antimicrob Agents Chemother, 2007)", "key": {"Pseudomonas aeruginosa [1]": {"system": "Pseudomonas aeruginosa", "experiment": "Antibacterial activity against Pseudomonas aeruginosa ATCC 27853 by microdilution method", "assay_type": "functional, organism-based"}, "Pseudomonas aeruginosa [2]": {"system": "Pseudomonas aeruginosa", "experiment": "Antibacterial activity against Pseudomonas aeruginosa ATCC 27853 assessed as bacterial growth rate by time-kill study", "assay_type": "functional"}, "Pseudomonas aeruginosa [3]": {"system": "Pseudomonas aeruginosa", "experiment": "Antibacterial activity against Pseudomonas aeruginosa ATCC 27853 assessed as maximum bacterial kill rate by time-kill study", "assay_type": "functional"}, "[4]": {"experiment": "Volume of distribution in mouse", "assay_type": "ADME, organism-based", "conditions": "in vivo, read-out: Vc"}, "[5]": {"experiment": "Elimination rate constant in mouse", "assay_type": "ADME, organism-based", "conditions": "in vivo"}, "[6]": {"experiment": "Volume of distribution in human", "assay_type": "ADME, organism-based", "conditions": "in vivo, read-out: Vc"}, "[7]": {"experiment": "Elimination rate constant in human", "assay_type": "ADME, organism-based", "conditions": "in vivo"}, "Homo sapiens [8]": {"system": "Homo sapiens", "experiment": "%fT>MIC in human at 20.2 mg/kg administered every 4 hrs", "assay_type": "ADME, organism-based", "set-up": "dose 20.2 mg/kg", "conditions": "in vivo"}, "Mus musculus [9]": {"system": "Mus musculus", "experiment": "%fT>MIC in mouse at 2.12 mg/kg administered every 2 hrs", "assay_type": "ADME, organism-based", "set-up": "dose 2.12 mg/kg", "conditions": "in vivo"}, "Mus musculus [10]": {"system": "Mus musculus", "experiment": "%fT>MIC in mouse at 4.60 mg/kg administered every 3 hrs", "assay_type": "ADME, organism-based", "set-up": "dose 4.6 mg/kg", "conditions": "in vivo, 4.6 mg/kg"}, "Mus musculus [11]": {"system": "Mus musculus", "experiment": "%fT>MIC in mouse at 9.29 mg/kg administered every 4 hrs", "assay_type": "ADME, organism-based", "set-up": "dose 9.29 mg/kg", "conditions": "in vivo"}, "Mus musculus [12]": {"system": "Mus musculus", "experiment": "%fT>MIC in mouse at 35.6 mg/kg administered every 6 hrs", "assay_type": "ADME, organism-based", "set-up": "dose 35.6 mg/kg", "conditions": "in vivo"}, "Mus musculus [13]": {"system": "Mus musculus", "experiment": "%fT>MIC in mouse at 129.7 mg/kg administered every 8 hrs", "assay_type": "ADME, organism-based", "set-up": "dose 129.7 mg/kg", "conditions": "in vivo"}, "Homo sapiens [14]": {"system": "Homo sapiens", "experiment": "%fT>MIC in human at 38.9 mg/kg administered every 6 hrs", "assay_type": "ADME, organism-based", "set-up": "dose 38.9 mg/kg", "conditions": "in vivo"}, "Homo sapiens [15]": {"system": "Homo sapiens", "experiment": "%fT>MIC in human at 59.8 mg/kg administered every 8 hrs", "assay_type": "ADME, organism-based", "set-up": "dose 59.8 mg/kg", "conditions": "in vivo"}, "Homo sapiens [16]": {"system": "Homo sapiens", "experiment": "%fT>MIC in human at 121 mg/kg administered every 12 hrs", "assay_type": "ADME, organism-based", "set-up": "dose 121 mg/kg", "conditions": "in vivo"}}}
{"compound": "CC(C)(O/N=C(\\C(=O)N[C@@H]1C(=O)N2C(C(=O)[O-])=C(C[n+]3ccccc3)CS[C@H]12)c1csc(N)n1)C(=O)O", "note": "[CEFTAZIDIME]", "values": [{"measurement": "EC50", "setting": "Pseudomonas aeruginosa [1]", "result": 1.22, "unit": "µg/mL"}, {"measurement": "Activity", "setting": "Pseudomonas aeruginosa [2]", "result": -1.41, "unit": "h⁻¹"}, {"measurement": "Activity", "setting": "Pseudomonas aeruginosa [3]", "result": 4.15, "unit": "h⁻¹"}, {"measurement": "Vd", "setting": "[4]", "result": 0.5, "unit": "L/kg"}, {"measurement": "k el", "setting": "[5]", "result": 0.000544, "unit": "s⁻¹"}, {"measurement": "Vd", "setting": "[6]", "result": 1.4, "unit": "L"}, {"measurement": "k el", "setting": "[7]", "result": 0.000128, "unit": "s⁻¹"}, {"measurement": "fT>MIC", "setting": "Homo sapiens [8]", "result": 23.7, "unit": "%"}, {"measurement": "fT>MIC", "setting": "Mus musculus [9]", "result": 37.3, "unit": "%"}, {"measurement": "fT>MIC", "setting": "Mus musculus [10]", "result": 38.1, "unit": "%"}, {"measurement": "fT>MIC", "setting": "Mus musculus [11]", "result": 37.6, "unit": "%"}, {"measurement": "fT>MIC", "setting": "Mus musculus [12]", "result": 36.5, "unit": "%"}, {"measurement": "fT>MIC", "setting": "Mus musculus [13]", "result": 35.7, "unit": "%"}, {"measurement": "fT>MIC", "setting": "Homo sapiens [14]", "result": 36.3, "unit": "%"}, {"measurement": "fT>MIC", "setting": "Homo sapiens [15]", "result": 37.9, "unit": "%"}, {"measurement": "fT>MIC", "setting": "Homo sapiens [16]", "result": 37.7, "unit": "%"}]}
